From US12252524B2, “GIP/GLP1 co-agonist compounds” (Eli Lilly and Company, priority 2018, dated 2025) come the findings set out here.

Numbered stars: 1 amine (or outer) side, 2 acyl side, 3 side chain; on linkers, the order of the positions; unused ones are H or OH. Square brackets hold non-standard residues; d marks the D form. Side chains are listed from the residue outwards. Peptide text beside a SMILES is read from it. * marks the point of attachment. C20 diacid = O=C(O)CCCCCCCCCCCCCCCCCCC(=O)*; γGlu = O=C(O)[C@H](CCC(=O)[*:2])N[*:1]; AEEA = NCCOCCOCC(=O)O; Aib = CC(C)(N)C(=O)O

For test [1], the target named is T1, gastric inhibitory peptide receptor (GIPR) (Homo sapiens, UniProt P48546).
T1 sequence (P48546 22-466): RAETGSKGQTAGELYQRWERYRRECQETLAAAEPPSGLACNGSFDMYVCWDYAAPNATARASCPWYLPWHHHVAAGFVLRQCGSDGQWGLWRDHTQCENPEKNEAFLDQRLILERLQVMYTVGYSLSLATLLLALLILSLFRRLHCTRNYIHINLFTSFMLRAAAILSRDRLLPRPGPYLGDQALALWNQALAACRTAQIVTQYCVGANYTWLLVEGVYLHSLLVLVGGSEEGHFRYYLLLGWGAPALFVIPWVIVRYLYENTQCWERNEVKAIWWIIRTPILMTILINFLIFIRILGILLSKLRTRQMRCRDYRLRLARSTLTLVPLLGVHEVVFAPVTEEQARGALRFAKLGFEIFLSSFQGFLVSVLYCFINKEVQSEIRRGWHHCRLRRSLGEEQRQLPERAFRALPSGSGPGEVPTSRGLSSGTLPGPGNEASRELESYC
The experiment in a line: cAMP pharmacological functional assay in presence of casein, hGIPR. It is filed as cell-based. Conditions: HEK293 cells expressing hGIPR, 0.1% Casein, geometric mean; read-out: hGIPR cAMP Rel EC50 nM (SEM, n).

The target in test [2] is human GLP-1R (Homo sapiens, UniProt P43220). The experiment in a line: [125I]-GLP-1 binding (SPA), human GLP-1 receptor. The arrangement: expressed in transfected cells; crude membranes. The note with it: read-out: hGLP1R Ki, (nM) (SEM, n). The method, boiled down:
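Frozen cell pellets are lysed on ice in hypotonic Tris buffer, pH 7.5, homogenized, and centrifuged to a membrane pellet resuspended at about 1 to 3 mg/mL. Binding is then measured in HEPES-based buffer at pH 7.4, and curves are fitted to give IC50 and Ki.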

Test [3] has as its target T2, human GIP receptor (Homo sapiens, UniProt P48546).
T2 construct: expressed in transfected cells; crude membranes
T2 sequence (P48546 22-466): T1 sequence (P48546 22-466)
In words: [125I]-GIP binding (SPA), human GIP receptor. Conditions: read-out: hGIPR Ki, nM (SEM, n).

Test [4] concerns the target T3, human Gcg receptor (Homo sapiens, UniProt P47871).
T3 construct: expressed in transfected cells; crude membranes
The experiment in a line: [125I]-Glucagon binding (SPA), human Gcg receptor. The note with it: read-out: hGLcgR Ki, nM (SEM, n). The method, boiled down: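 Scintillation counts are taken after membranes and WGA beads incubate and settle for 12 hours at room temperature. Buffer is 25 mM HEPES, pH 7.4, with CaCl2, MgCl2, bacitracin and Tween-20. Ki values, from four-parameter IC50 fits, are geometric means over independent days.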

Test [5] has as its target human GLP-1 receptor (GLP-1R) (Homo sapiens, UniProt P43220). In words: cAMP pharmacological functional assay in presence of casein, hGLP-1R. It is filed as cell-based. The note with it: HEK293 cells expressing hGLP-1R, 0.1% Casein, geometric mean; read-out: hGLP1R cAMP Rel EC50 nM (SEM, n).

Chain of human GLP-1 receptor (GLP-1R) (P43220 24-463): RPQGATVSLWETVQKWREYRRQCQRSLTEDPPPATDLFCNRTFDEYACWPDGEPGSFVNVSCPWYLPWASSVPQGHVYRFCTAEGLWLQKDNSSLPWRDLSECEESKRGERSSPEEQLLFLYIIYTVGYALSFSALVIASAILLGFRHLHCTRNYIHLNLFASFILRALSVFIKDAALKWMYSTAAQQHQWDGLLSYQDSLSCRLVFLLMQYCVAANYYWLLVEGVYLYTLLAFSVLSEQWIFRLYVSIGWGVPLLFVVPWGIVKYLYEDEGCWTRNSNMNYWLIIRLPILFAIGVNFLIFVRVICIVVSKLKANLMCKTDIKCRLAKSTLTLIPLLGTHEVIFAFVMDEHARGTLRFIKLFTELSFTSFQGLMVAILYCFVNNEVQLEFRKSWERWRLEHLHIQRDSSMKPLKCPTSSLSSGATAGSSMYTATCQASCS
Chain of human GLP-1R (P43220 24-463): as above
T3 sequence (P47871 26-477): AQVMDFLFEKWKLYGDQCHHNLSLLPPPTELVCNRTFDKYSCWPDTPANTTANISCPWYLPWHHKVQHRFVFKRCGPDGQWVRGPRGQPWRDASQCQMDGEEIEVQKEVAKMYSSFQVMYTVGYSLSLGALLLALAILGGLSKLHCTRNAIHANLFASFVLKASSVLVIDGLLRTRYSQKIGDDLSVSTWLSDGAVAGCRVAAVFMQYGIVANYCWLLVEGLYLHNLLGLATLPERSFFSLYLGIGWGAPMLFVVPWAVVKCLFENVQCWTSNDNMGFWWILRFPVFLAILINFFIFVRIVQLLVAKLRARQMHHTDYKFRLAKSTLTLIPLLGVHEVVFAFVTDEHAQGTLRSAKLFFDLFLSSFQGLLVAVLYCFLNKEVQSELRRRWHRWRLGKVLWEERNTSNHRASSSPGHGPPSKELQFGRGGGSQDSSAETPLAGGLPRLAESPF

On to `CC[C@H](C)[C@H](NC(=O)[C@H](CCCCN)NC(=O)[C@H](CC(=O)O)NC(=O)[C@H](CC(C)C)NC(=O)[C@H](CC(C)C)NC(=O)[C@@H](NC(=O)[C@H](CO)NC(=O)[C@H](Cc1ccc(O)cc1)NC(=O)[C@H](CC(=O)O)NC(=O)[C@H](CO)NC(=O)[C@@H](NC(=O)[C@H](Cc1ccccc1)NC(=O)[C@@H](NC(=O)CNC(=O)[C@H](CCC(=O)O)NC(=O)C(C)(C)NC(=O)[C@@H](N)Cc1ccc(O)cc1)[C@@H](C)O)[C@@H](C)O)[C@@H](C)CC)C(=O)N[C@@H](C)C(=O)N[C@@H](CCC(N)=O)C(=O)NC(C)(C)C(=O)N[C@@H](C)C(=O)N[C@@H](Cc1ccccc1)C(=O)N[C@H](C(=O)N[C@@H](CCC(=O)O)C(=O)N[C@@H](Cc1ccc(O)cc1)C(=O)N[C@@H](CC(C)C)C(=O)N[C@H](C(=O)N[C@@H](CCC(=O)O)C(=O)NCC(=O)NCC(=O)N1CCC[C@H]1C(=O)N[C@@H](CO)C(=O)N[C@@H](CO)C(=O)NCC(=O)N[C@@H](CCCCNC(=O)COCCOCCNC(=O)COCCOCCNC(=O)CC[C@H](NC(=O)CCCCCCCCCCCCCCCCCCC(=O)O)C(=O)O)C(=O)N1CCC[C@H]1C(=O)N1CCC[C@H]1C(=O)N1CCC[C@H]1C(=O)N[C@@H](CO)C(N)=O)[C@@H](C)CC)[C@@H](C)CC` [Example 44] (H-Y[Aib]EGTFTSDYSILLDKIAQ[Aib]AFIEYLIEGGPSSGK([AEEA-AEEA-γGlu-C20 diacid])PPPS-NH2), for which the EC50 (as a rule, the midpoint of the concentration-response curve) was 0.128 nM in test [1] and 0.752 nM in test [5]. Besides, the Ki (usually a dissociation constant, usually derived from enzyme kinetics or from competition with a known ligand) was determined as 10.6 nM in test [2], 0.0516 nM in test [3] and 121 nM in test [4].
Regarding `CC[C@H](C)[C@H](NC(=O)[C@H](CCCCN)NC(=O)[C@H](CC(=O)O)NC(=O)[C@H](CC(C)C)NC(=O)[C@H](CC(C)C)NC(=O)[C@@H](NC(=O)[C@H](CO)NC(=O)[C@H](Cc1ccc(O)cc1)NC(=O)[C@H](CC(=O)O)NC(=O)[C@H](CO)NC(=O)[C@@H](NC(=O)[C@H](Cc1ccccc1)NC(=O)[C@@H](NC(=O)CNC(=O)[C@H](CCC(=O)O)NC(=O)C(C)(C)NC(=O)[C@@H](N)Cc1ccc(O)cc1)[C@@H](C)O)[C@@H](C)O)[C@@H](C)CC)C(=O)N[C@@H](C)C(=O)N[C@@H](CCC(N)=O)C(=O)NC(C)(C)C(=O)N[C@@H](C)C(=O)N[C@@H](Cc1ccccc1)C(=O)N[C@H](C(=O)N[C@@H](CCC(=O)O)C(=O)N[C@@H](Cc1ccc(O)cc1)C(=O)N[C@@H](CC(C)C)C(=O)N[C@H](C(=O)N[C@@H](CCC(=O)O)C(=O)NCC(=O)NCC(=O)N1CCC[C@H]1C(=O)N[C@@H](CO)C(=O)N[C@@H](CO)C(=O)NCC(=O)N[C@@H](C)C(=O)N[C@@H](CCCCNC(=O)COCCOCCNC(=O)COCCOCCNC(=O)CC[C@H](NC(=O)CCCCCCCCCCCCCCCCCCC(=O)O)C(=O)O)C(=O)N1CCC[C@H]1C(=O)N1CCC[C@H]1C(=O)N[C@@H](CO)C(N)=O)[C@@H](C)CC)[C@@H](C)CC` [Example 45] (H-Y[Aib]EGTFTSDYSILLDKIAQ[Aib]AFIEYLIEGGPSSGAK([AEEA-AEEA-γGlu-C20 diacid])PPS-NH2), the EC50 in test [1] amounted to 0.106 nM; in test [5], 1.03 nM. The inhibitory constant (Ki) in test [2] came to 5.65 nM; in test [3] it was 0.0463 nM; in test [4] it was 11.1 nM.
As for `CC[C@H](C)[C@H](NC(=O)[C@H](CCCCN)NC(=O)[C@H](CC(=O)O)NC(=O)[C@H](CC(C)C)NC(=O)[C@H](CC(C)C)NC(=O)[C@@H](NC(=O)[C@H](CO)NC(=O)[C@H](Cc1ccc(O)cc1)NC(=O)[C@H](CC(=O)O)NC(=O)[C@H](CO)NC(=O)[C@@H](NC(=O)[C@H](Cc1ccccc1)NC(=O)[C@@H](NC(=O)CNC(=O)[C@H](CCC(=O)O)NC(=O)C(C)(C)NC(=O)[C@@H](N)Cc1ccc(O)cc1)[C@@H](C)O)[C@@H](C)O)[C@@H](C)CC)C(=O)N[C@@H](C)C(=O)N[C@@H](CCC(N)=O)C(=O)NC(C)(C)C(=O)N[C@@H](C)C(=O)N[C@@H](Cc1ccccc1)C(=O)N[C@H](C(=O)N[C@@H](CCC(=O)O)C(=O)N[C@@H](Cc1ccc(O)cc1)C(=O)N[C@@H](CC(C)C)C(=O)N[C@H](C(=O)N[C@@H](CCC(=O)O)C(=O)NCC(=O)NCC(=O)N1CCC[C@H]1C(=O)N[C@@H](CO)C(=O)N[C@@H](CO)C(=O)NCC(=O)N[C@@H](C)C(=O)N1CCC[C@H]1C(=O)N[C@@H](CCCCNC(=O)COCCOCCNC(=O)COCCOCCNC(=O)CC[C@H](NC(=O)CCCCCCCCCCCCCCCCCCC(=O)O)C(=O)O)C(=O)N1CCC[C@H]1C(=O)N[C@@H](CO)C(N)=O)[C@@H](C)CC)[C@@H](C)CC` [Example 46] (H-Y[Aib]EGTFTSDYSILLDKIAQ[Aib]AFIEYLIEGGPSSGAPK([AEEA-AEEA-γGlu-C20 diacid])PS-NH2), the half-maximal effective concentration (EC50) turned out to be 0.172 nM in test [1] and 0.687 nM in test [5]. The inhibition constant Ki in test [2] was determined as 13.4 nM; in test [3], 0.0852 nM; in test [4], 133 nM.
Regarding `CC[C@H](C)[C@H](NC(=O)[C@H](CCCCN)NC(=O)[C@H](CC(=O)O)NC(=O)[C@H](CC(C)C)NC(=O)[C@H](CC(C)C)NC(=O)[C@@H](NC(=O)[C@H](CO)NC(=O)[C@H](Cc1ccc(O)cc1)NC(=O)[C@H](CC(=O)O)NC(=O)[C@H](CO)NC(=O)[C@@H](NC(=O)[C@H](Cc1ccccc1)NC(=O)[C@@H](NC(=O)CNC(=O)[C@H](CCC(=O)O)NC(=O)C(C)(C)NC(=O)[C@@H](N)Cc1ccc(O)cc1)[C@@H](C)O)[C@@H](C)O)[C@@H](C)CC)C(=O)N[C@@H](C)C(=O)N[C@@H](CCC(N)=O)C(=O)NC(C)(C)C(=O)N[C@@H](C)C(=O)N[C@@H](Cc1ccccc1)C(=O)N[C@H](C(=O)N[C@@H](CCC(=O)O)C(=O)N[C@@H](Cc1ccc(O)cc1)C(=O)N[C@@H](CC(C)C)C(=O)N[C@H](C(=O)N[C@@H](CCC(=O)O)C(=O)NCC(=O)NCC(=O)N1CCC[C@H]1C(=O)N[C@@H](CO)C(=O)N[C@@H](CO)C(=O)NCC(=O)N[C@@H](C)C(=O)N1CCC[C@H]1C(=O)N1CCC[C@H]1C(=O)N1CCC[C@H]1C(=O)N[C@@H](CCCCNC(=O)COCCOCCNC(=O)COCCOCCNC(=O)CC[C@H](NC(=O)CCCCCCCCCCCCCCCCCCC(=O)O)C(=O)O)C(N)=O)[C@@H](C)CC)[C@@H](C)CC` [Example 48] (H-Y[Aib]EGTFTSDYSILLDKIAQ[Aib]AFIEYLIEGGPSSGAPPPK([AEEA-AEEA-γGlu-C20 diacid])-NH2; N-terminus assumed), the half-maximal effective concentration (EC50) in test [1] was 0.168 nM; in test [5] it was 0.691 nM. Also, the Ki stood at 15.7 nM in test [2], 0.074 nM in test [3] and 111 nM in test [4].
Take `CC[C@H](C)[C@H](NC(=O)[C@H](CCCCN)NC(=O)[C@H](CC(=O)O)NC(=O)[C@H](CC(C)C)NC(=O)[C@H](CC(C)C)NC(=O)[C@@H](NC(=O)[C@H](CO)NC(=O)[C@H](Cc1ccc(O)cc1)NC(=O)[C@H](CC(=O)O)NC(=O)[C@H](CO)NC(=O)[C@@H](NC(=O)[C@H](Cc1ccccc1)NC(=O)[C@@H](NC(=O)CNC(=O)[C@H](CCC(=O)O)NC(=O)C(C)(C)NC(=O)[C@@H](N)Cc1ccc(O)cc1)[C@@H](C)O)[C@@H](C)O)[C@@H](C)CC)C(=O)N[C@@H](C)C(=O)N[C@@H](CCC(N)=O)C(=O)NC(C)(C)C(=O)N[C@@H](C)C(=O)N[C@@H](Cc1ccccc1)C(=O)N[C@H](C(=O)N[C@@H](CCC(=O)O)C(=O)N[C@@H](Cc1ccc(O)cc1)C(=O)N[C@@H](CC(C)C)C(=O)N[C@H](C(=O)N[C@@H](CCC(=O)O)C(=O)NCC(=O)NCC(=O)N1CCC[C@H]1C(=O)N[C@@H](CO)C(=O)N[C@@H](CO)C(=O)NCC(=O)N[C@@H](C)C(=O)N1CCC[C@H]1C(=O)N1CCC[C@H]1C(=O)N1CCC[C@H]1C(=O)N[C@@H](CO)C(=O)N[C@@H](CCCCNC(=O)COCCOCCNC(=O)COCCOCCNC(=O)CC[C@H](NC(=O)CCCCCCCCCCCCCCCCCCC(=O)O)C(=O)O)C(N)=O)[C@@H](C)CC)[C@@H](C)CC` [Example 49] (H-Y[Aib]EGTFTSDYSILLDKIAQ[Aib]AFIEYLIEGGPSSGAPPPSK([AEEA-AEEA-γGlu-C20 diacid])-NH2; N-terminus assumed): the half-maximal effective concentration (EC50) stood at 0.0868 nM in test [1] and 0.597 nM in test [5]. Further, the inhibition constant Ki was found to be 12.3 nM in test [2], 0.087 nM in test [3] and 236 nM in test [4].
